In EP0188781A1, “1-Oxa-1-dethia-cephalosporin compounds and antibacterial agent comprising the same” (Merck & Co., Inc., priority 1984, dated 1986):

What was measured:
[1] = Concentration in serum after subcutaneous administration to mice, bioassay with Escherichia coli; assay type: in vivo; conditions: mouse, sc, 25 mg/kg subcutaneously; for concentration at 0.5 h: 1/2 hour; for concentration at 0.25 h: 1/4 hour; for concentration at 5 min: 1/12 hour
Excerpt: For the serum which was separated from the blood samples, the concentration in the serum of the compound administered was bioassayed using Escherichia coli as assay microorganism.

[2] = test system: Streptococcus faecalis; assay: Antibacterial activity in vitro, summary in words; assay type: cell-based; conditions: statement in words on Table 1
[3] = test system: Streptococcus faecalis W-75; assay: Minimum inhibitory concentration (MIC) in vitro, antibacterial spectrum; assay type: cell-based
[4] = test system: Staphylococcus aureus Smith; assay: as above; assay type: cell-based
[5] = test system: Escherichia coli GN206; assay: as above; assay type: cell-based
[6] = test system: Proteus vulgaris GN76; assay: as above; assay type: cell-based
[7] = test system: Staphylococcus aureus 209 P JC-1; assay: as above; assay type: cell-based
[8] = test system: Pseudomonas aeruginosa MB3829; assay: as above; assay type: cell-based
[9] = test system: Streptococcus faecalis W-74; assay: as above; assay type: cell-based
[10] = test system: Salmonella typhimurium LT-2; assay: as above; assay type: cell-based
[11] = test system: Proteus rettgeri GN624; assay: as above; assay type: cell-based
[12] = test system: Pseudomonas aeruginosa MB3833; assay: as above; assay type: cell-based
[13] = test system: Escherichia coli NIHJ JC-2; assay: as above; assay type: cell-based
[14] = test system: Pseudomonas aeruginosa; assay: Antibacterial activity in vitro, summary in words; assay type: cell-based; conditions: statement in words on Table 1
Excerpt: Besides, the compounds of Examples 1, 2, 4, 5 and 7 advantageously are also effective against Pseudomonas aeruginosa.

[15] = test system: Serratia marcescens No. 2; assay: Minimum inhibitory concentration (MIC) in vitro, antibacterial spectrum; assay type: cell-based
[16] = test system: Streptococcus faecalis ATCC8043; assay: as above; assay type: cell-based
[17] = test system: Proteus mirabilis GN79; assay: as above; assay type: cell-based
[18] = test system: Pseudomonas aeruginosa E-2; assay: as above; assay type: cell-based
[19] = test system: Streptococcus faecalis W-73; assay: as above; assay type: cell-based

SMILES | concentration at 0.5 h [1] | concentration at 0.25 h [1] | Minimum inhibitory concentration (MIC) [3] | Minimum inhibitory concentration (MIC) [4] | Minimum inhibitory concentration (MIC) [5] | Minimum inhibitory concentration (MIC) [6] | Minimum inhibitory concentration (MIC) [7] | Minimum inhibitory concentration (MIC) [8] | Minimum inhibitory concentration (MIC) [9] | Minimum inhibitory concentration (MIC) [10] | Minimum inhibitory concentration (MIC) [11] | Minimum inhibitory concentration (MIC) [12] | Minimum inhibitory concentration (MIC) [13] | Minimum inhibitory concentration (MIC) [15] | Minimum inhibitory concentration (MIC) [16] | Minimum inhibitory concentration (MIC) [17] | Minimum inhibitory concentration (MIC) [18] | Minimum inhibitory concentration (MIC) [19] | effective against Streptococcus faecalis [2] | effective against Pseudomonas aeruginosa [14] | further results
CCN1CCN(C(=O)NC(C(=O)N[C@@H]2C(=O)N3C(C(=O)O)=C(CSc4nc(=O)c(O)nn4C)CO[C@H]23)c2csc(N)n2)C(=O)C1=O (single isomer, unassigned) [Compound No. 7] | 32000 ng/mL | 34000 ng/mL | 12.5 | 1.56 | 1.56 | 0.025 | 0.78 | 12.5 | 25 | 0.10 | 0.39 | 12.5 | 0.10 | 0.20 | 0.78 | 50 | 25 | 100 | – | effective | concentration at 5 min [1]: 25000 ng/mL; concentration at 1 h [1]: 13000 ng/mL
CO/N=C(\C(=O)N[C@@H]1C(=O)N2C(C(=O)O)=C(CSc3nc(=O)c(O)nn3C)[C@H](C)O[C@H]12)c1csc(N)n1 [Compound No. 1, (6R,7R)-7[(Z)-2-(2-aminothiazol-4-yl)-2-(methoxyimino)acetamido]-(2S)-2-methyl-3-(2,5-dihydro-6-hydroxy-2-methyl-5-oxo-1,2,4-triazin-3-yl)thiomethyl-l-oxa-l-dethia-ceph-3-em-4-carboxylic acid] | 41000 ng/mL | 47700 ng/mL | 0.20 | 1.56 | 0.78 | 0.10 | 0.78 | 6.25 | 6.25 | 0.05 | 0.78 | 6.25 | 0.10 | 0.39 | 6.25 | 0.025 | 12.5 | 50 | effective | effective | concentration at 5 min [1]: 27000 ng/mL; concentration at 1 h [1]: 24800 ng/mL
CCO/N=C(\C(=O)N[C@@H]1C(=O)N2C(C(=O)O)=C(CSc3nc(=O)c(O)nn3C)[C@H](C)O[C@H]12)c1csc(N)n1 [Compound No. 2, (6R,7R)-7-[(z)-2-(2-aminothiazol-4-yl)-2-(ethoxyimino)acetamido]-(2S)-2-methyl-3-(2,5-dihydro-6-hydroxy-2-methyl-5-oxo-1,2,4-triazin-3-yl)thiomethyl-l-oxa-l-dethia-ceph-3-em-4-carboxylic acid] | – | – | 0.20 | 1.56 | 0.78 | 0.20 | 1.56 | 6.25 | 6.25 | 0.39 | 0.78 | 12.5 | 0.39 | 0.39 | 1.56 | 0.20 | 25 | 50 | effective | effective | –

Continued, in another order:

concentration at 0.5 h [1] | concentration at 0.25 h [1] | Minimum inhibitory concentration (MIC) [3] | Minimum inhibitory concentration (MIC) [4] | Minimum inhibitory concentration (MIC) [5] | Minimum inhibitory concentration (MIC) [6] | Minimum inhibitory concentration (MIC) [7] | Minimum inhibitory concentration (MIC) [8] | Minimum inhibitory concentration (MIC) [9] | Minimum inhibitory concentration (MIC) [10] | Minimum inhibitory concentration (MIC) [11] | Minimum inhibitory concentration (MIC) [12] | Minimum inhibitory concentration (MIC) [13] | Minimum inhibitory concentration (MIC) [15] | Minimum inhibitory concentration (MIC) [16] | Minimum inhibitory concentration (MIC) [17] | Minimum inhibitory concentration (MIC) [18] | Minimum inhibitory concentration (MIC) [19] | SMILES | effective against Streptococcus faecalis [2] | effective against Pseudomonas aeruginosa [14] | further results
25000 ng/mL | 44000 ng/mL | 3.13 | 3.13 | 1.56 | 0.025 | 1.56 | 1.56 | 6.25 | 0.10 | 0.78 | 3.13 | 0.10 | 0.39 | 50 | 0.78 | 3.13 | 25 | CCN1CCN(C(=O)NC(C(=O)N[C@@H]2C(=O)N3C(C(=O)O)=C(CSc4nc(=O)c(O)nn4C)[C@H](C)O[C@H]23)c2csc(N)n2)C(=O)C1=O (single isomer, unassigned) [Compound No. 5] | effective | effective | concentration at 5 min [1]: 24000 ng/mL; concentration at 1 h [1]: 10000 ng/mL
– | – | 0.20 | 1.56 | 1.56 | 0.05 | 0.78 | – | – | 0.10 | 0.39 | 6.25 | 0.10 | – | 25 | 0.025 | 25 | 100 | CCO/N=C(\C(=O)N[C@@H]1C(=O)N2C(C(=O)O)=C(CSc3nc(=O)c(O)nn3C)CO[C@H]12)c1csc(N)n1 [Compound No. 4, (6R,7R)-7-[(Z)-2-(2-aminothiazol-4-yl)-2-(ethoxyimino)acetamido]-3-(2,5-dihydro-6-hydroxy-2-methyl-5-oxo-l,2,4-triazin-3-yl) thiomethyl-l-oxa-l-dethia-ceph-3-em-4-carboxylic acid] | – | effective | –
– | – | 6.24 | 1.56 | 1.56 | 50 | 0.78 | 50 | 50 | 0.025 | 0.10 | 100 | 0.10 | 0.20 | 12.5 | 0.10 | 100 | 100 | C[C@@H]1O[C@@H]2[C@H](NC(=O)C(NC=O)c3csc(N)n3)C(=O)N2C(C(=O)O)=C1CSc1nc(=O)c(O)nn1C (stereo partly drawn) [Compound No. 6, (6R,7R)-7-[2-(2-aminothiazol-4-yl)-2-(form-amido)acetamido]-(2S)-2-methyl-3-(2,5-dihydro-6-hydroxy-2-methyl-5-oxo-1,2,4-triazin-3-yl) thiomethyl-l-oxa-l-dethia-ceph-3-em-4-carboxylic acid] | effective | – | –
